Measured values: patent US9597318B2, “2-oxothiazole compounds and method of using same for chronic inflammatory disorders” (Avexxin AS, priority 2009, dated 2017)
Read-outs that look alike come from different tables or passages of the source.

Tests used:
group IVa PLA2 (cPLA2) = group IVa PLA2 (cPLA2) (Homo sapiens (Human), UniProt P47712); test: In vitro cPLA2 enzyme activity assay; assay type: biochemical
Protocol: Some of the compounds above were tested using an in vitro cPLA2 enzyme activity assay.
Assay for cPLA2 activity was performed by the use of sonicated vesicles of 1-palmitoyl-2-arachidonoyl-sn-glycerol-3-phosphorylcholine (100 μM) containing 100,000 cpm of 1-palmitoyl-2-[1 14C]arachidonoylsn-glycerol-3-phosphorylcholine in 100 mM Hepes, pH 7.5, 80 μM Ca2, 2 mM dithiothreitol, and 0.1 mg/ml BSA as described. Following a […] incubation at 37° C., the reaction was terminated (derived from Wijkander et al). The lower phase was separated by thin layer chromatography, and the spot corresponding to free [1-14C]arachidonic acid was visualized by digital imaging and quantified with a PhosphorImager (Fuji Instruments). The source of cPLA2 enzyme was recombinant overexpression of the human gene for group IVa PLA2 in baculovirus insect cell expression system, as described in Abdullah et al. • Wijkander, J., and Sundler, R. (1991) Eur. J. Biochem. 202, 873-880 • Abdullah, K., et al. (1995) Human cytosolic phospholipase A2 expressed in insect cells is extensively phosphorylated on Ser-505. Biochim Biophys Acta. 1995 May 11; 1244(1):157-64.

SW982 cells = test: AA release assay in SW982 cells, IL-1B stimulation; assay type: cell-based; details: Homo sapiens
Protocol: (§1) The Cell Culture SW982 model cell line at a confluent or spheroid state (Wada Y, 2005) was used since gene expression and generation of proinflammatory cytokines resemble RA-derived synovial fibroblast-like cells.
[…] […] IC50 is evaluated from dose-response inhibitions curves.

PGE2 = test: PGE2-assay (EIA kit detection); assay type: cell-based
Protocol: as §1
Samples and controls were slowly thawed and diluted (between 1:1 and 1:2500) in the standard diluent. The maximal dilution was 1:10 for one step. That is why several intermediate dilutions were prepared. In the beginning all values were determined from duplicates. After having minimized technical errors, samples were only analyzed as individuals. All further steps, except for some minor corrections, were performed according to the manufacturer's recommendations as can be found in the manual of the EIA kit. In order to optimize the results, the incubation time of the alkaline phosphatase substrate was prolonged by 15 minutes. During the incubation, the plates were kept in the dark. An example of the arrangements of the samples and controls is illustrated in the appendix. The read-out was carried out with a Multiscan plate reader (Ascent Labsystems) at wavelengths of 414 and 595 nm after 10 seconds shaking at 120 rpm. The corresponding software to obtain the data was the Ascent software for Multiscan, Version 2.4.1.
Data were processed using Microsoft Office Excel 2003 and SigmaPlot 10.0.

[1] = recombinant human group IVa PLA2, vesicle assay, 37° C., read-out: Enzyme Assay IC 50
[2] = 1 h preincubation, IL-1B stimulation, time not given
[3] = read-out: cPLA2 in vitro assay IC50

group IVa PLA2 (cPLA2), sequence (P47712 whole entry): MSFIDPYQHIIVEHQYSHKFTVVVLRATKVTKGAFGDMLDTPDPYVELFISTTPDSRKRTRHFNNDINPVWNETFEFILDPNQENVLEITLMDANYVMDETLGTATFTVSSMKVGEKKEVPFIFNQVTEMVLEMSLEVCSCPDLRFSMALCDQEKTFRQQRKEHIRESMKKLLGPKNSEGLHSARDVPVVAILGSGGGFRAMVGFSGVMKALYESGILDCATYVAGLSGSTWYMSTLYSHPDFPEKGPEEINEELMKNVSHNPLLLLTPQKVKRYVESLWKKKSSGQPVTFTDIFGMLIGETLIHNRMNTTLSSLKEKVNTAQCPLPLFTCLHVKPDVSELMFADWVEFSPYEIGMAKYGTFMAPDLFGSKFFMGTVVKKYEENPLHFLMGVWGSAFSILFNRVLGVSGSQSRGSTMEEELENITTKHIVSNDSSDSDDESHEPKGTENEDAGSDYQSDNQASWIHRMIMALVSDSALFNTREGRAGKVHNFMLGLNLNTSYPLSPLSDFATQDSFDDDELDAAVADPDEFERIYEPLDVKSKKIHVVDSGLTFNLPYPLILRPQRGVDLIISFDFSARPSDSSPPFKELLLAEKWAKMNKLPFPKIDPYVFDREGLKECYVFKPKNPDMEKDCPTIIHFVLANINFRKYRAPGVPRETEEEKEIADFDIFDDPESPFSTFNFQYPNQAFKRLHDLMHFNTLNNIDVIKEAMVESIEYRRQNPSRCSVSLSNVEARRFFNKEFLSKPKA

| IC50 (SW982 cells; [2]) | SMILES | IC50 (group IVa PLA2 (cPLA2); [1]) | IC50 (group IVa PLA2 (cPLA2); [3]) | inhibition at 10 µM (PGE2) | inhibition at 30 µM (PGE2) | further results |
| --- | --- | --- | --- | --- | --- | --- |
|  | O=C(CCCCc1ccccc1)c1nccs1 [GK147, 5-Phenyl-1-(thiazol-2-yl)pentan-1-one] | 3.05 µM |  |  |  |  |
| 5.8 µM | CCCCCCOc1ccc(CCC(=O)c2nccs2)cc1 [GK150, 3-(4-(Hexyloxy)phenyl)-1-(thiazol-2-yl)propan-1-one] |  |  |  |  |  |
|  | CCOC(=O)c1csc(C(=O)CCCCc2ccccc2)n1 [GK152, Ethyl 2-(5-phenylpentanoyl)thiazole-4-carboxylate] |  | > 5 µM | 30% | 31% | inhibition at 0.1 µM (PGE2; 0.1 uM): 41%; inhibition at 3 µM (PGE2): 38%; IC50 (SW982 cells; (2 h)): 7.4 µM; IC50 (SW982 cells; (4 h)): > 25 µM |
|  | CCCCCCCCc1ccc(OCCCC(=O)c2nccs2)cc1 [GK154, 4-(4-Octylphenoxy)-1-(thiazol-2-yl)butan-1-one] | 3.65 µM |  |  |  |  |
|  | CCCCCCOc1ccc(CCCC(F)C(=O)c2nccs2)cc1 (stereo not drawn) [GK156, 2-Fluoro-5-(4-(hexyloxy)phenyl)-1-(thiazol-2-yl)pentan-1-one] | 3.7 µM |  |  |  |  |
|  | O=C(CCCCc1ccccc1)c1nc2ccccc2s1 [GK159] |  | > 5 µM | 23% | 10% | inhibition at 0.3 µM (PGE2; 0.3 uM): 76%; inhibition at 3 µM (PGE2): 18%; IC50 (SW982 cells; (2 h)): < 2 µM; IC50 (SW982 cells; (4 h)): ~25 µM |
| 4.9 µM | CCC(=O)c1nc(C(=O)O)cs1 [GK160] |  | 7.2 µM | 12% | 30% |  |
| 1.4 µM | O=C(CCCCc1ccc2ccccc2c1)c1nc2ccccc2s1 [GK181] |  |  | 16.3% | 22.5% |  |
| 2.8 µM | CCc1ccc(OCC(=O)c2nccs2)cc1 [GK185] |  | 2 µM |  |  |  |
